Test results as given in patent US20240299554A1, “PRODRUGS WITH 1-(DISULFANYL)ALKYLOXY-CARBONYL UNITS” (PHARMACYTICS B.V., priority 2021, published 2024).

What was measured:
[1] = Oral bioavailability of conjugates in female Beagle dogs (AUC of parent drug); type: in vivo; conditions: for Δ AUC (increase of AUC of parent drug derived from conjugate compared to parent drug as such): female Beagle dogs, single oral dose 7.5 or 15 μmol/kg by gavage, 24 h sampling, Table 1a; for generation of parent drug after oral administration: oral administration to beagle dogs
Procedure: Relative and absolute bioavailability may be determined in different animal models and according to different protocols. The following protocol is typical for determining bioavailability in female Beagle dogs and was used in the present invention. The animals were deprived from food over a time period of 8 h prior to administration of the compounds according to the present invention and over a time period of 2 h after administration of the compounds according to the present invention. Water was supplied without limitation. On the study day, the animals received the compounds according to the present invention, at a single dose of 7.5 or 15 μmol/kg, by oral gavage, formulated in mixtures of propylene glycol, ethanol and 0.9% NaCl+5% mannitol in water. Blood samples were collected from the jugular vein on the following time points: 0.25, 0.5, 1, 2, 4, 8 and 24 hours after dosing of the compounds according to the present invention. […] Pharmacokinetic parameters were calculated from concentration versus time data using non-compartmental pharmacokinetic methods using Phoenix pharmacokinetic software. Data are compared to the parent drugs to establish improvement of its oral bioavailability by the compounds according to the present invention.

[2] = In vitro treatment of conjugates with glutathione, release of parent drug followed by LC-MS at 254 nm; type: in vitro ADME; conditions: for formation of parent drug on in vitro treatment with glutathione: glutathione 5 eq., phosphate buffer pH=7.6, 37° C. (for 102); for fate of glutathione adduct formed during glutathione treatment: adduct formed in situ from the conjugate
Description: (§1) FIGS. 1A and 1B are graphs showing the release of the drug Cinacalcet after an in vitro treatment of Cinacalcet conjugate 102 (not according to the invention) with glutathione. […] FIG. 1B represent the concentration of Cinacalcet conjugate 102 and Cinacalcet versus time. The presence of the compounds was followed at 254 nm by LC-MS.
as §1, with “3A” for “1A”, “3B” for “1B”, “60 (according” for “102 (not according”, “60” for “102”
The results are shown in FIGS. 1A and B. In FIG. 1A is shown the disappearance of conjugate 102 over time after treatment with glutathione, the formation of Cinacalcet and the appearance and partial disappearance of an intermediate (HS-Et-Cinacalcet) and a glutathione adduct (GSS—Et-Cinacalcet)—see below.

SMILES	Δ AUC (increase of AUC of parent drug derived from conjugate compared to parent drug as such) [1]	generation of parent drug after oral administration [1]	formation of parent drug on in vitro treatment with glutathione [2]	other results
C[C@H](c1cccc2ccccc12)N(CCCc1cccc(C(F)(F)F)c1)C(=O)OCSSCCO[C@@H]1O[C@H](CO)[C@@H](O)[C@H](O)[C@H]1O [Compound 60]	++ (++ denotes a 2 to 4-fold increase of the AUC compared to the parent drug)	readily resulted in the generation of significant amounts of cinacalcet	very fast and complete formation of Cinacalcet	
CN(CC[C@@H](Oc1cccc2ccccc12)c1cccs1)C(=O)OCSSCCO[C@@H]1O[C@H](CO)[C@H](O)[C@H](O)[C@H]1O [Compound 61]	++ (++ denotes a 2 to 4-fold increase of the AUC compared to the parent drug)	readily resulted in the generation of significant amounts of duloxetine	very fast and complete formation of Duloxetine	
CN(CC[C@@H](Oc1cccc2ccccc12)c1cccs1)C(=O)OCCSSCCO[C@@H]1O[C@H](CO)[C@@H](O)[C@H](O)[C@H]1O [Compound 103]		did not produce any detectable amount of Duloxetine	very slow and incomplete formation of duloxetine	conversion of pro-drug into parent drug within 8 hours ([2]; glutathione treatment): less than half
CN(CC[C@H](Oc1cccc2ccccc12)c1cccs1)C(=O)OCSSC[C@H](NC(=O)CC[C@H](N)C(=O)O)C(=O)NCC(=O)O [GSS-Me-Duloxetine]				fate of glutathione adduct formed during glutathione treatment [2]: completely converted into Duloxetine within one hour
C[C@H](c1cccc2ccccc12)N(CCCc1cccc(C(F)(F)F)c1)C(=O)OCSSCCNC(=O)O[C@@H]1O[C@H](CO)[C@@H](O)[C@H](O)[C@H]1O [Compound 90]	+ (+ denotes a 1.1 to 2-fold increase of the AUC compared to parent drug)			
C[C@H](c1cccc2ccccc12)N(CCCc1cccc(C(F)(F)F)c1)C(=O)OCCSSCCO[C@@H]1O[C@H](CO)[C@@H](O)[C@H](O)[C@H]1O [Compound 102]		did not produce any detectable amount of the drug Cinacalcet	very slow and incomplete formation of Cinacalcet	conversion of pro-drug into parent drug within 8 hours ([2]; glutathione treatment): far from being completely converted into Cinacalcet; conversion of pro-drug into parent drug in 23 hours ([2]; glutathione treatment, 23 hours): less than half
C[C@H](c1cccc2ccccc12)N(CCCc1cccc(C(F)(F)F)c1)C(=O)OCCSSC[C@H](NC(=O)CC[C@H](N)C(=O)O)C(=O)NCC(=O)O [GSS-Et-Cinacalcet]				fate of glutathione adduct formed during glutathione treatment [2]: somewhat more stable than the mercaptoethyl carbamate
CCCN(COCCSSCOC(=O)N(CCCc1cccc(C(F)(F)F)c1)[C@H](C)c1cccc2ccccc12)C(=O)O[C@@H]1O[C@H](CO)[C@@H](O)[C@H](O)[C@H]1O [Compound 92a]	+++ (+++ denotes a >4-fold increase of the AUC compared to the parent drug)			
CCCN(COCCSSCOC(=O)N(CCCc1cccc(C(F)(F)F)c1)[C@H](C)c1cccc2ccccc12)C(=O)O[C@@H]1O[C@H](CF)[C@@H](O)[C@H](O)[C@H]1O [Compound 92b]	+++ (+++ denotes a >4-fold increase of the AUC compared to the parent drug)			
C[C@H](c1cccc2ccccc12)N(CCCc1cccc(C(F)(F)F)c1)C(=O)OCSSC[C@H](NC(=O)CC[C@H](N)C(=O)O)C(=O)NCC(=O)O [GSS-Me-Cinacalcet]				fate of glutathione adduct formed during glutathione treatment [2]: completely converted into Cinacalcet within one hour
CCCN(COCCSSCOC(=O)N(CCCc1cccc(C(F)(F)F)c1)[C@H](C)c1cccc2ccccc12)C(=O)O[C@@H]1O[C@H](CO)[C@H](O)[C@H](O)[C@H]1O [Compound 93a]	+++ (+++ denotes a >4-fold increase of the AUC compared to the parent drug)			
